In data set [1] the target is T1, Human PPARδ (Homo sapiens, UniProt Q03181).
T1 construct: (PPARδ amino acid 128 to C-terminus); expressed in transfected cells; host or cells: CV-1 cells
T1 sequence (Q03181 128-441 limits assumed): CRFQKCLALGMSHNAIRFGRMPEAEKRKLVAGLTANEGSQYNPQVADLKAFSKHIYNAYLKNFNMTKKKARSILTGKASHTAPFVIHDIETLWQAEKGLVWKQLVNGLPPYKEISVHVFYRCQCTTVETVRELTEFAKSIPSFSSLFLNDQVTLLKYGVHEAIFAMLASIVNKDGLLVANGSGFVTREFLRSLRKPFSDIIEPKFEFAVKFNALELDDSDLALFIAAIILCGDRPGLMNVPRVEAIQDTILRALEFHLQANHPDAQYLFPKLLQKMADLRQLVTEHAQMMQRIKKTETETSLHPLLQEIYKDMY
The experiment in a line: PPARδ activity screen (GAL4-PPARδ LBD luciferase transactivation in CV-1 cells). Format: cell-based. Particulars: 24 h compound treatment, luciferase reporter. As for the experimental part:
CV-1 cells were grown in DMEM+10% charcoal stripped FCS. Cells were seeded into 384-well plates the day before transfection to give a confluency of 50-80% at transfection. A total of […] containing 0.64 micrograms pCMX-PPARDelta LBD, 0.1 micrograms pCMXβGal, 0.08 micrograms pGLMH2004 reporter and 0.02 micrograms pCMX empty vector was transfected per well using FuGene transfection reagent according to the manufacturer's instructions (Roche). Cells were allowed to express protein for 48 h followed by addition of compound.
Human PPARδ was used to PCR amplify the PPARδ LBD. […] Ensuing fusions were verified by sequencing.
All compounds were dissolved in DMSO and diluted 1:1000 upon addition to the cells. Compounds were tested in quadruple in concentrations ranging from 0.001 to 100 μM. Cells were treated with compound for 24 h followed by luciferase assay. […]
Medium including test compound was aspirated and washed with PBS. […] Light emission was quantified by counting on a Perkin Elmer Envision reader. […] Beta-galactosidase assays were performed in the microwell plates using a kit from Promega and read in a Perkin Elmer Envision reader. […]
The activity of a compound is calculated as fold induction compared to an untreated sample. […] EC50 values were calculated via non-linear regression using GraphPad PRISM (GraphPad Software, San Diego, Calif.).

The target in data set [2] is T2, hERG (Homo sapiens, UniProt Q12809).
T2 construct: expressed in transfected cells
The data set is described as follows: hERG inhibition screen (patch clamp, peak hERG tail current). Format: cell-based. Particulars: human. The protocol: Cells were cultured in DMEM/F-12 medium supplemented with 10% fetal bovine serum and 400 μg/mL Geneticin. Cells were grown in 75 cm tissue culture flasks maintained at 37° C. with 5% CO2 and passaged every 3 days using 0.05/0.02% Trypsin/EDTA (confluency of <80%). For the purpose of electrophysiology, cells were seeded in 25 cm2 tissue culture flasks. Three day old cells were harvested using Trypsin/EDTA (0.025/0.01%) as detaching agent and resuspended in external recording solution.
Preweighed quantity of test item was dissolved in tissue culture grade DMSO to prepare a primary stock solution. The strength of the primary stock was 1000× of the intended highest test concentration. Subsequently, working stock solutions of appropriate strengths was prepared by dilution of primary stock with DMSO. The stock solutions were aliquoted into eppendorff tubes and stored at −20° C. freezer (<0° C.) until use. On the day of experiment, aliquots were thawed and used for preparing the assay solution (test solution).
Test solutions were prepared fresh by adding 4 μL of stock solution in to 3996 μL external recording solution such that the final DMSO concentration in the assay solution was 0.1% v/v. Upon addition, solution was inspected carefully against light by naked eye for any indications of precipitation.
Electrophysiological Procedures: • Electrophysiology Setup: Instrument: Port-A-Patch • Patch clamp type: Semiautomatic • Manufacturer: Nanion technologies, GmBH Germany • Electrophysiology chips: Glasscoated NPC-1 chips • Recording Condition: Room temperature • Compound Addition Protocol: Manual addition—20 μL of solution was added on one side of the chip, followed by withdrawal of 20 μL from the other side. This way of addition and withdrawal was repeated at least 4-5 times to ensure actual test concentration is reached. • Test Concentration Exposure Period: Cells were exposed to each test concentration for 3 min or till a steady state block was reached • Voltage Protocol: −40 mV subtraction pulse for 0.5 sec; +40 mV activation pre-pulse for 2 sec; −40 mV test pulse for 2 sec and −80 mV holding potential repeated at every 10 sec • Assay end point: Peak hERG tail current recorded when the voltage was reduced from +40 mV to −40 mV.
The steady state current after the application of 0.1% DMSO was considered as baseline (control current). Steady state current obtained at the end of each test concentration addition was used to calculate the % hERG current inhibited at each concentration. Any rundown due to vehicle addition was corrected to calculate % hERG current inhibition. Each cell acted as its own control. Average current of last 3-5 sweeps of acceptable quality was considered for calculation of % inhibition. Sweeps with artifacts and noise were omitted while calculation.
In general terms: hERG is a cardiac potassium channel; its block is linked to QT prolongation.

T2 sequence (Q12809 whole entry): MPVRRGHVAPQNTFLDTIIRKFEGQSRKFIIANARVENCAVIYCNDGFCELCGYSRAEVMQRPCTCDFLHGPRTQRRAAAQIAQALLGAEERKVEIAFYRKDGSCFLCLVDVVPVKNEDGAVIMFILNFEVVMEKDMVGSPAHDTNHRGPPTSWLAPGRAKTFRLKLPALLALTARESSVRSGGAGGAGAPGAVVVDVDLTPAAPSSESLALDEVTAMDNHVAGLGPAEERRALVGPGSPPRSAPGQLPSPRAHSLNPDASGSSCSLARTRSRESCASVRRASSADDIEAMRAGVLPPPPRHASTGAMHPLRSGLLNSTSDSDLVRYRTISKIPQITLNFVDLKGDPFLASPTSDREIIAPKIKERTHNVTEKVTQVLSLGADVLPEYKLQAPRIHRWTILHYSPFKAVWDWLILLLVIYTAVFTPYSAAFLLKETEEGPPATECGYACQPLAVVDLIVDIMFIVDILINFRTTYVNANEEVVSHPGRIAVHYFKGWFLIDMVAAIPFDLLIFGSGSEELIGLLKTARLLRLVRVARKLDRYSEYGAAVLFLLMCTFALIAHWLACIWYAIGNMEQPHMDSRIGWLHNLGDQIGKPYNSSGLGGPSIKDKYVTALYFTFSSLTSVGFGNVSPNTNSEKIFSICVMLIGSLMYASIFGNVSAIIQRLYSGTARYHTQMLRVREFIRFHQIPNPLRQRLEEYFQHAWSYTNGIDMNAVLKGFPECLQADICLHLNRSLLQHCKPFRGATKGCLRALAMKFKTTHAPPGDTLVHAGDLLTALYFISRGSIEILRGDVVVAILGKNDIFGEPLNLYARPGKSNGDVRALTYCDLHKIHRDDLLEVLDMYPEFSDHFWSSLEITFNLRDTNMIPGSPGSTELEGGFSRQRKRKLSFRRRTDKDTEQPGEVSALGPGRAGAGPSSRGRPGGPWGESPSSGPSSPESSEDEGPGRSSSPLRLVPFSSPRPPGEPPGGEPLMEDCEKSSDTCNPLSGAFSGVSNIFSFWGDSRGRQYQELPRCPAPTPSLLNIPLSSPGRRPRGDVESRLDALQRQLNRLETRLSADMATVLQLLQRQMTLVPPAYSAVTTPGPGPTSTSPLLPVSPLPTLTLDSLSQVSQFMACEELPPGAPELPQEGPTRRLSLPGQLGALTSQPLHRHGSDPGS

In data set [1], `C[C@H](CCCOc1ccccc1Cn1c(C(F)(F)F)cnc1-c1ccc(F)cc1)CC(=O)O` [Compound 2e, (3R)-6-(2-((2-(4-fluorophenyl)-5-(trifluoromethyl)-1H-imidazol-1-yl)methyl)phenoxy)-3-methylhexanoic acid] had an EC50 of 0.025 µM.

In data set [1], `O=C(O)CCCCCOc1ccccc1Cn1c(C(F)(F)F)cnc1-c1ccc(-c2ccco2)cc1` [Compound 2h, 6-(2-((2-(4-(furan-2-yl)phenyl)-5-(trifluoromethyl)-1H-imidazol-1-yl)methyl)phenoxy)hexanoic acid] yielded an EC50 of 0.002 µM. This compound showed an inhibition at 10 µM in data set [2] of 7%.

The EC50 is the concentration at which the effect is half-maximal. Read a low EC50 as greater potency. What is called inhibition is the change of the read-out against control, counted positive when it falls. Low readings indicate little suppression, high ones strong suppression.

The values are drawn from patent US11358954B2, “PPAR agonists, compounds, pharmaceutical compositions, and methods of use thereof” (Mitobridge, Inc., priority 2016, dated 2022).
